Test results published in patent US20110166223A1, “METHODS OF INHIBITING FGFR3 SIGNALING” (CEDARS-SINAI MEDICAL CENTER, priority 2008, published 2011).

Test system: CCL3 and CCL4 expression in OPM2 cells
Assay: Real-time RT-PCR of FGF2/FGFR3-induced CCL3 and CCL4 expression
Type: cell-based
Details: NF449 one hour before FGF2, FIG. 3b
Procedure: FIG. 3, in accordance with an embodiment herein, depicts 4,4′,4″,4′″-[carbonyl-bis[imino-5,1,3-benzenetriyl bis-{carbonylimino}]]tetrakis-{benzene-1,3-disulfonic acid} inhibits FGF2/FGFR3 signaling in MM cell lines OPM2 and KMS11. (a) KMS11 and OPM2 cells were serum-starved for 12 hours, treated with 4,4′,4″,4′″-[carbonyl-bis[imino-5,1,3-benzenetriyl bis-{carbonylimino}]]tetrakis-{benzene-1,3-disulfonic acid} for one hour before the treatment with FGF2 and the levels of ERK MAP kinase phosphorylation were determined by western blotting with the P-ERK1/2(Thr^202/Tyr^204) antibody. As a loading control, the membranes were reprobed with antibody recognizing ERK regardless of its phosphorylation. Note the FGF2-mediated ERK phosphorylation is inhibited by 4,4′,4″,4′″-[carbonyl-bis[imino-5,1,3-benzenetriyl bis-{carbonylimino}]]tetrakis-{benzene-1,3-disulfonic acid} in both KMS11 and OPM2 cells. (b) The OPM2 cells were serum starved for 12 hours, pre-treated with 4,4′,4″,4′″-[carbonyl-bis[imino-5,1,3-benzenetriyl bis-{carbonylimino}]]tetrakis-{benzene-1,3-disulfonic acid} for one hour before FGF2 treatment, and analyzed for CCL3 and CCL4 expression by real-time RT-PCR as described herein. The results are expressed as the fold difference relative to control (2^ddCt). Note the FGF2-mediated induction of CCL3 and CCL4 that is inhibited by 4,4′,4″,4′″-[carbonyl-bis[imino-5,1,3-benzenetriyl bis-{carbonylimino}]]tetrakis-{benzene-1,3-disulfonic acid}. The data represent two independent samples, each run as a technical duplicate, with the indicated range. The results are representative for three experiments.
Total RNA was isolated using the RNeasy Mini Kit (Qiagene, Valencia, Calif.) and poly-dT-primed cDNA was synthesized from 3 μg of RNA using Omniscript RT kit (Qiagene). Real-time RT-PCRs were carried out as described in detail elsewhere, using Dynamo SYBR Green qPCR chemistry (Finnzymes, Espoo, Finland). The PCR primers were the following (5′ to 3′; product size): CCL3 (SEQ. ID. NO.: 1 and SEQ. ID. NO.: 2), 192 bp; CCL4 (SEQ. ID, NO.: 3 and SEQ. ID. NO.: 4), 214 bp; ACTIN (SEQ. ID. NO.: 5 and SEQ. ID. NO.: 6), 245 bp. The results are expressed as fold difference relative to control (2^ddCt).
Since MM represents another area of pathological FGFR3 signaling in viva, the inventors evaluated whether NF449 inhibits FGFR3 signaling in KMS11 and OPM2 MM cell lines. OPM2 and KMS11 cells overexpress FGFR3 carrying the strongly activating mutations Y373C or K650E and thus serve as an in vitro model for oncogenic FGFR3 signaling in MM [14]. […] As the CCL3 ([…]) and CCL4 (MIP-1β) chemokines were previously identified as transcriptional targets of FGFR3 signaling in MM [16], the inventors determined the effect of NF449 on the FGF2/FGFR3-induced expression of CCL3 and CCL4.

[1] = listed as 4,4′,4″,4′″-[carbonyl-bis[imino-5,1,3-benzenetriyl bis-{carbonylimino}]]tetrakis

Which results are given for O=C(Nc1cc(C(=O)Nc2ccc(S(=O)(=O)O)cc2S(=O)(=O)O)cc(C(=O)Nc2ccc(S(=O)(=O)O)cc2S(=O)(=O)O)c1)Nc1cc(C(=O)Nc2ccc(S(=O)(=O)O)cc2S(=O)(=O)O)cc(C(=O)Nc2ccc(S(=O)(=O)O)cc2S(=O)(=O)O)c1 [NF449, 4,4′,4″,4′″-[carbonyl-bis[imino-5,1,3-benzenetriylbis-{carbonylimino}]]tetrakis-{benzene-1,3-disulfonic acid}]?
FGF2-mediated upregulation of CCL3 transcripts: significantly blocked; FGF2-mediated upregulation of CCL4 transcripts: significantly blocked; FGF2-mediated upregulation of CCL3 transcripts [1]: inhibited; FGF2-mediated upregulation of CCL4 transcripts [1]: inhibited
